Data published in patent publication US10865176B2, “Small molecule modulators of microRNA-34a” (The Chinese University of Hong Kong, priority 2012, dated 2020).
Marks after values point to notes of the source that are not given here.

How the values were obtained:
miR-34a [1] = experiment: qRT-PCR of primary and mature miR-34a in HCC cells; assay type: cell-based, human; settings: HCC cells (HepG2, FIG. 4B)
Protocol: (§1) Total RNA from cell cultures and HCC xenograft tumors were extracted using Trizol (Invitrogen) according to manufacturer's protocols. Total RNAs were dissolved into nuclease-free ddH2O. For protein extraction, cells and HCC xenograft tumors were lysed in 1×RIPA buffer with 1 mM PMSF and 1× complete protease inhibitor cocktail (Roche, Indianapolis, Ind.). Both RNA and protein were stored at −80° C.
(§2) Total RNA was reversely transcribed into cDNAs using High Capacity cDNA Reverse Transcription Kit (Applied Biosystems, Foster city, CA, USA) and nude RT kit (Invitrogen) individually. qRT-PCR was performed using SYBR Green PCR master mix (TaKaRa, Dalian, China). GAPDH was used as an endogenous control. For measuring miR-34a expression level, qPCR was performed by using SYBR Green PCR master mixture (Invitrogen) and U6 was used as the internal control. All samples were normalized to internal controls and fold changes were calculated by relative quantification (2^−ΔΔct).

miR-34a [2] = experiment: miR-34a reporter luciferase assay in Huh7 cells; assay type: cell-based, human
Protocol: The pMIR-REPORT™ luciferase plasmid (1 μg; Ambion) was sequentially double digested with Sac I and Hind III (10 units each, 50 μL reaction; NEB) and was gel purified. Double stranded insert DNA encoding the miR-34a binding site was synthesized through standard oligonucleotide synthesis methods. The sequences used were Forward: 5′z […]-3′ (SEQ ID NO:1) and Reverse: 5′: […]-3′ (SEQ ID NO:2). The insert was hybridized (heated to 95° C., and cooled to 4° C. over 30 min, then held at 4° C. for 60 min) and ligated with T4 ligase (200 units, 10 μL reaction, 1:10 vector/insert ratio; NEB) into the digested pMIR-REPORT™ luciferase vector. Positive colonies were selected by PCR colony screens, and the construction of the pMIR-REPORT™-miR-34a vector was confirmed by double enzyme digestion with NheI, MluI and Nhe I, Hind III (NEB). The luciferase reporter vector containing the miR-34a promoter was kindly provided by Prof. Mendell J T from Johns Hopkins University (21).
Huh7 cells were seeded into 96-well plates 12 h prior to transfection. MiR-34a reporter and the control vector were respectively co-transfected with Renilla luciferase pRL-SV40 into Huh7 cells. All transfections were performed in triplicate. The cells were incubated at 37° C. for 4 h followed by the replacement of transfection media with standard DMEM growth media with 10 μM of the natural products library (NPL) compounds (Tim Tec; 0.1% DMSO final concentration). This library contains 640 compounds including natural products and their derivatives. After 48 h of incubation, the media was removed and cells were lysed and the luciferase signals were measured by luciferase assay as described below.
MiR-34a reporter, the luciferase reporter vector containing miR-34a promoter and the control vectors were transfected into HCC cells 12 h before compound treatment. The Renilla luciferase vector pRL-SV40 was co-transfected as an internal control. HCC cells were then treated with compound for 48-72 h. The luciferase activity was measured by Dual Luciferase Reporter Assay (Promega) with a Wallac VICTOR^3V luminometer. The ratio of firefly luciferase to Renilla expression was calculated for each of the triplicates.

Cyclin D1 and Bcl-2 = experiment: qRT-PCR of Cyclin D1 and Bcl-2 in xenografted tumors; assay type: in vivo, nude mice; settings: excised tumors after 24 d gavage
Protocol: as §1, §2
(§3) Tumor volume was calculated as [(Length×Width×Height)[…]]. Treatment was continued for 24 d. Finally, all mice were sacrificed and tumors were excised. Tumor weight was recorded.

[3] = HepG2 xenograft model, survival, body weight and side effects
Protocol: 5×10^6 HepG2 cells were suspended in 100 μl serum-free medium and subcutaneously (s.c.) inoculated into the dorsal flanks of nude mice. When tumors reached 5-10 mm in diameter, mice were randomly divided into 4 groups (n=5). […] Vehicle alone and Sorafenib were used as the negative and positive control respectively. Tumor volumes and body weight were measured once every two days. Tumor volume was calculated as [(Length×Width×Height)±2]. Treatment was continued for 24 d. Finally, all mice were sacrificed and tumors were excised. Tumor weight was recorded.

HepG2 xenografted tumor = experiment: HepG2 xenografted nude mice model, tumor growth; assay type: in vivo; settings: 50 mg/kg, gavage once every two days
Protocol: as §3

miR-34a [4] = experiment: qRT-PCR of pri-miR-34a and miR-34a in xenografted tumors; assay type: in vivo, nude mice; settings: excised tumors after 24 d gavage
Protocol: as §1, §2, §3

Which “miR-34a expression after chemotherapeutic drugs” value (from here on “miR-34a expression”) (miR-34a [1]) does the source give for `O=c1[nH]cc(F)c(=O)[nH]1` [5-Fluorouracil, reference compound] here?
Its value is “no effect”.

Which “function as miR-34a activator, re-assayed in triplicate with miR-34a reporter system” value (miR-34a [2]) does the source give for `COc1ccc(-c2cc(=O)c3c(O)cc(O)cc3o2)cc1` [Acacetin, 5,7-dihydroxy-4′-methoxyflavone] here?
Its value is “functions as the miR-34a activators are confirmed”.

For `N.N.[Cl][Pt][Cl]` [Cisplatin, reference compound], which “miR-34a expression” value (miR-34a [1]) is on record?
Its value is “no effect”.

Which “miR-34a expression” value (miR-34a [1]) does the source give for `COc1cccc2c1C(=O)c1c(O)c3c(c(O)c1C2=O)C[C@@](O)(C(=O)CO)C[C@@H]3O[C@H]1C[C@H](N)[C@H](O)[C@H](C)O1` [Doxorubicin, reference compound] here?
The value was “no effect”.

Which “Cyclin D1 and Bcl-2 expression in xenografted tumors” value (Cyclin D1 and Bcl-2) does the source give for `CNC(=O)c1cc(Oc2ccc(NC(=O)Nc3ccc(Cl)c(C(F)(F)F)c3)cc2)ccn1` [Sorafenib, reference compound] here?
The value was “no changes”.

What about the “Body weight (g) initial” value ([3]; 50 mg/kg group, initial, mean (95% CI)) of the same compound?
Its value is 20.00(95% CI = 18.76 − 21.24)/ g.

What about the “Body weight (g) end” value ([3]; 50 mg/kg, end of 24 d treatment, mean (95% CI)) of the same compound?
The value was 24.00(95% CI = 21.22 − 26.78) g.

And the “Mice survival (n) initial/end” value ([3]; 50 mg/kg, gavage once every two days, 24 d)?
The value was 5/5.

And the “miR-34a expression” value (miR-34a [1])?
The value was “no effect”.

And the “Tumor growth inhibition (%)” value (HepG2 xenografted tumor; 24 d)?
Its value is 84.22%.

What about the “Tumor weight (g)” value (HepG2 xenografted tumor; day 24, mean (95% CI)) of the same compound?
The value was 0.186 (95% CI = 0.14 − 0.23)** g.

What about the “pri-miR-34a and miR-34a levels in xenografted tumors” value (miR-34a [4]) of the same compound?
Its value is “no changes”.
